# Test results published in patent publication US20050118263A1, “Composition” (priority 2002, published 2005).
# Tests used:
# healthy, unmedicated men = assay: Randomised, double-blind, crossover trial in healthy men: cognitive tests at end of each phase (Example 2); assay type: in vivo, human; details: 4 weeks per phase, carbenoxolone 100 mg 8 hourly + amiloride 10 mg daily by mouth vs placebo + amiloride, p<0.01
# Procedure: 10 healthy, unmedicated men (65.5 plus/minus SD 5.5y) participated in a randomised, double-blind, crossover trial comparing carbenoxolone (100 mg 8 hourly for 4 weeks by mouth) plus amiloride (10 mg daily by mouth) with placebo (8 hourly for 4 weeks by mouth) plus amiloride (10 mg daily by mouth). Each study phase lasts 4 weeks. The two phases are separated by an 8 week washout period. The order of carbenoxolone or placebo is randomised and the subjects and the experimenters are blind to the treatment given. Participants are asked to look out for potential adverse effects of carbenoxolone, including weight gain and pedal edema, and blood pressure and plasma electrolytes are monitored weekly. Compliance is assessed by pill counting and detecting carbenoxolone in plasma by high performance liquid chromatography. At the end of each phase, tests of verbal fluency, verbal memory, visuospatial memory, attention and processing speed, and intelligence are performed. Data are mean+/−SEM for the % change in cognitive score, calculated for each individual as (score with carbenoxolone+amiloride)−(score with placebo+amiloride)/(score with placebo+amiloride)×100. P values refer to comparison of absolute data in the two groups. Statistical analysis is conducted using Mann-Witney U tests and Friedman's non-parametric ANOVAs.
# [1] = system: patients with type 2 diabetes; assay: Randomised double-blind placebo controlled crossover trial in type 2 diabetes patients: cognitive tests at end of each phase (Example 3); assay type: in vivo, human; details: 6 weeks per phase
# Procedure: 12 patients with type 2 diabetes by World Health Organisation criteria (age range 52-70 y, mean 60.1 y), including 3 women and 9 men, participated in a randomised double-blind placebo controlled crossover trial comparing carbenoxolone (100 mg 8 hourly for 6 weeks by mouth) plus amiloride (10 mg daily by mouth) with placebo (8 hourly for 6 weeks by mouth) plus amiloride (10 mg daily by mouth). The two phases are separated by a washout period of 8 weeks. The order of carbenoxolone or placebo is randomised and the subjects and the experimenters are blind to the treatment given. At the end of each phase, tests of verbal fluency, verbal memory, visuospatial memory, attention and processing speed and intelligence are performed.
# [2] = known from Yau et al. (1999) Neurosci Lett 277: 45-48; cited from earlier work
# [3] = system: patients with type 2 diabetes; assay: Withdrawals from treatment in patients with type 2 diabetes; assay type: in vivo, human; details: carbenoxolone alone: of 8 patients, including one hospital admission with hypokalaemia
structure (smiles),measurement,setting,value
"NC(N)=NC(=O)c1nc(Cl)c(N)nc1N [Placebo with Amiloride, 3,5-diamino-6-chloro-N-(diaminomethylene) pyrazinecarboxamide]","verbal fluency (Controlled Word Association test), mean/SD","healthy, unmedicated men",41/12
same,"Processing speed: DSST, Mean (SD)","[1]; Digit Symbol Substitution test, p 0.78",50.3 (6.7)
same,"Reasoning: RSPM, Mean (SD)","[1]; Ravens Standard Progressive Matrices, p 0.17",44.0 (6.6)
same,"Verbal memory: Rey AVLT, Mean (SD)","[1]; Rey Auditory Verbal Learning Test, p <0.01",56.1 (8.7)
same,"Verbal memory: WM Logical Memory, Mean (SD)","[1]; Wechsler Memory Scale-revised, p 0.78",49.7 (13.8)
same,"Visual memory: WM Visual reproduction, Mean (SD)","[1]; Wechsler Memory Scale-revised, p 0.94",59.9 (13.3)
same,"Executive function: Verbal Fluency, Mean (SD)",[1]; p 0.48 between phases,42.2 (8.4)
"CC(=O)S[C@@H]1CC2=CC(=O)CC[C@]2(C)[C@H]2CC[C@@]3(C)[C@@H](CC[C@@]34CCC(=O)O4)[C@H]12 [Spironolactone, 17-hydroxy-7-alpha-mercapto-3-oxo-17-alpha-pregn-4-ene-21-carboxylic acid gamma-lactone acetate]",unwanted effects on cognitive function,[2],reduce cognitive function
CC1(C)[C@@H](OC(=O)CCC(=O)O)CC[C@]2(C)[C@H]3C(=O)C=C4[C@@H]5C[C@@](C)(C(=O)O)CC[C@]5(C)CC[C@@]4(C)[C@]3(C)CC[C@@H]12 [carbenoxolone],withdrawals due to sodium retention,[3],3
